The assay addresses human TrkA (Homo sapiens (Human), UniProt P04629). As to the kind of experiment: Human TrkA inhibition assay (Test Example 2). It counts as biochemical. The method, boiled down:
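Mobility-shift readout of phosphorylated versus unphosphorylated fluorescent peptide gave conversion ratio, normalized to DMSO and no-enzyme wells; IC50 by logistic fit of 10- or 15-point 3-fold dilutions. Conditions: 1 nmol/L enzyme, 15 min compound preincubation, then 500 μmol/L ATP plus 1.5 μmol/L peptide, 120 min, 37 °C.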

Setting [1] is: Table 155, human TrkA inhibition, read-out: IC50.

Each structure is given as a SMILES string. Read-outs that look alike come from different tables or passages of the source. Some results are limits rather than exact numbers.

human TrkA, sequence (P04629 440-796): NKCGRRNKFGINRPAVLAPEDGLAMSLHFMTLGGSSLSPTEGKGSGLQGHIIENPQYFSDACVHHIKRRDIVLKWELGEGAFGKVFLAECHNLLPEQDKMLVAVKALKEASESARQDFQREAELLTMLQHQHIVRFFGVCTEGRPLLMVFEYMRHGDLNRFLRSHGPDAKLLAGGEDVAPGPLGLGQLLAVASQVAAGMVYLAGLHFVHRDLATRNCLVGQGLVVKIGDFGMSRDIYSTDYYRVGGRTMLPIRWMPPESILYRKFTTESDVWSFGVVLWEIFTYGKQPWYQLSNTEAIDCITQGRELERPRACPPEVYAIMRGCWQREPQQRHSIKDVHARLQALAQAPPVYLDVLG

Broadly, the IC50 is the concentration at which inhibition is half-maximal. Consider `COCCN1C[C@@H](NC(=O)Nc2c(C)c(-c3ccc4c(c3)NC(=O)CO4)nn2-c2ccccc2)[C@H](c2ccnc(F)c2)O1` (racemic) [Compound I-364], for which, under setting [1], the half-maximal inhibitory concentration (IC50) is less than 100 nM.
For the compound `COCCN1C[C@@H](NC(=O)Nc2c(C)c(-c3ccc4c(c3)N(C)C(=O)CO4)nn2-c2ccccc2)[C@H](c2ccnc(F)c2)O1` (racemic) [Compound I-365], the IC50 under setting [1] is less than 100 nM.
On the same count and under the same terms, the value for `COCCN1C[C@@H](NC(=O)Nc2c(C)c(-c3cnc(OC)c(OC)c3)nn2-c2ccccc2)[C@H](c2ccnc(F)c2)O1` (racemic) [Compound I-366] was less than 100 nM; that for `COCCN1C[C@@H](NC(=O)Nc2c(C)c(-c3cnc(OC)c(F)c3)nn2-c2ccccc2)[C@H](c2ccnc(F)c2)O1` (racemic) [Compound I-367] was less than 100 nM; that for `COCCN1C[C@@H](NC(=O)Nc2c(C)c(-c3cnc(-c4cnn(C)c4)nc3)nn2-c2ccccc2)[C@H](c2ccnc(F)c2)O1` (racemic) [Compound I-368] was less than 100 nM.
On to `COCCN1C[C@@H](NC(=O)Nc2c(C)c(-c3cnc4c(c3)c(C(=O)OC)nn4C)nn2-c2ccccc2)[C@H](c2ccnc(F)c2)O1` (racemic) [Compound I-369], for which, under setting [1], the IC50 was less than 100 nM.
In the case of `COCCN1C[C@@H](NC(=O)Nc2c(C)c(-c3cnc(N4CCN(C(=O)OCc5ccccc5)CC4)nc3)nn2-c2ccccc2)[C@H](c2cc(F)nc(F)c2)O1` (racemic) [Compound I-370], under setting [1], the IC50 is less than 100 nM.
On the same count and under the same terms, the value for `COCCN1C[C@@H](NC(=O)Nc2c(C)c(-c3cnc(N4CCN(C(=O)OCc5ccccc5)CC4)nc3)nn2-c2ccccc2)[C@H](c2ccnc(F)c2)O1` (racemic) [Compound I-371] was less than 100 nM; that for `COCCN1C[C@@H](NC(=O)Nc2c(C)c(-c3ccc(N4CCN(C(=O)OC(C)(C)C)CC4)nc3)nn2-c2ccccc2)[C@H](c2ccnc(F)c2)O1` (racemic) [Compound I-372] was less than 100 nM; that for `COCCN1C[C@@H](NC(=O)Nc2c(C)c(-c3cnc(N4CC5(COC5)C4)nc3)nn2-c2ccccc2)[C@H](c2ccnc(F)c2)O1` (racemic) [Compound I-373] was less than 100 nM.
With `COCCN1C[C@@H](NC(=O)Nc2c(C)c(-c3ccc(N4CCNCC4)nc3)nn2-c2ccccc2)[C@H](c2ccnc(F)c2)O1` (racemic) [Compound I-374], the half-maximal inhibitory concentration (IC50) under setting [1] was less than 100 nM.
`COCCN1C[C@@H](NC(=O)Nc2c(C)c(-c3ccc(N4CCN(CC#N)CC4)nc3)nn2-c2ccccc2)[C@H](c2ccnc(F)c2)O1` (racemic) [Compound I-375]: under setting [1], the IC50 is less than 100 nM.
As to `COCCN1C[C@@H](NC(=O)Nc2c(C)c(-c3cnc4c(c3)c(C(=O)NC3CCN(C)CC3)nn4C)nn2-c2ccccc2)[C@H](c2ccnc(F)c2)O1` (racemic) [Compound I-376], under setting [1], the IC50 was less than 100 nM.
Take `COCCN1C[C@@H](NC(=O)Nc2c(C)c(-c3cnc4c(c3)c(C(=O)N3CCN(C)CC3)nn4C)nn2-c2ccccc2)[C@H](c2ccnc(F)c2)O1` (racemic) [Compound I-377]: the 50% inhibitory concentration (IC50) under setting [1] is less than 100 nM.
For `COCCN1C[C@@H](NC(=O)Nc2c(C)c(-c3cnc(N4CCCC4)nc3)nn2-c2ccccc2)[C@H](c2ccnc(F)c2)O1` (racemic) [Compound I-378], the IC50 under setting [1] was less than 100 nM.
With `COCCN1C[C@@H](NC(=O)Nc2c(C)c(-c3cnc(N4CCN(C)CC4)nc3)nn2-c2ccccc2)[C@H](c2ccnc(F)c2)O1` (racemic) [Compound I-379], the IC50 under setting [1] is less than 100 nM.
Same read-out and setting: for `COCCN1C[C@@H](NC(=O)Nc2c(C)c(-c3cnc(N4CCN(C)CC4)nc3)nn2-c2ccccc2)[C@H](c2cc(F)nc(F)c2)O1` (racemic) [Compound I-380] the value was less than 100 nM.
With `COCCN1C[C@@H](NC(=O)Nc2c(C)c(-c3cnc(OC4CCN(C)CC4)nc3)nn2-c2ccccc2)[C@H](c2ccnc(F)c2)O1` (racemic) [Compound I-381], the IC50 under setting [1] was less than 100 nM.
The same measure, in the same setting: for `COCCN1C[C@@H](NC(=O)Nc2c(C)c(-c3ccc4c(c3)NCCO4)nn2-c2ccccc2)[C@H](c2ccnc(F)c2)O1` (racemic) [Compound I-382] the value was less than 100 nM.
As to `COCCN1C[C@@H](NC(=O)Nc2c(C)c(-c3cc(F)c4c(c3)NCCO4)nn2-c2ccccc2)[C@H](c2ccnc(F)c2)O1` (racemic) [Compound I-383], the IC50 under setting [1] is less than 100 nM.
In the case of `CNC(=O)c1nn(-c2ccccc2)c(NC(=O)N[C@@H]2CN(CCOC)O[C@H]2c2ccnc(F)c2)c1C` (racemic) [Compound I-384], under setting [1], the IC50 was less than 100 nM.
As for `COCCN1C[C@@H](NC(=O)Nc2c(C)c(C(=O)NCC(C)(C)O)nn2-c2ccccc2)[C@H](c2ccnc(F)c2)O1` (racemic) [Compound I-385], under setting [1], the IC50 is less than 100 nM.
With `CNC(=O)c1cc(NC(=O)N[C@@H]2CN(CCOC)O[C@H]2c2ccnc(F)c2)n(-c2ccccc2)n1` (racemic) [Compound I-388], the IC50 under setting [1] was more than 1000 nM.
Turning to `COCCN1C[C@@H](NC(=O)Nc2c(C)c(-c3cc(C(=O)NC(C)(C)C)c(=O)n(C)c3)nn2-c2ccccc2)[C@H](c2ccnc(F)c2)O1` (racemic) [Compound I-389], the IC50 under setting [1] was less than 100 nM.
On the same count and under the same terms, for `COCCN1C[C@@H](NC(=O)Nc2c(C)c(-c3cc(C(=O)NC(C)(C)C(F)(F)F)c(=O)n(C)c3)nn2-c2ccccc2)[C@H](c2ccnc(F)c2)O1` (racemic) [Compound I-390] the value was less than 100 nM.
Regarding `COCCN1C[C@@H](NC(=O)Nc2c(C)c(-c3ccc(N4CCN(C)CC4)nc3)nn2-c2ccccc2)[C@H](c2ccnc(F)c2)O1` (racemic) [Compound I-392], the half-inhibitory concentration (IC50) (human TrkA 1 nmol/L, ATP 500 μmol/L, 120 min at 37° C., read-out: IC50 values (TrkA phosphorylation inhibition)) came to 6.8 nM.
On to `COCCN1C[C@@H](NC(=O)Nc2c(C)c(-c3ccc(N4C[C@H]5COC[C@@H](C4)N5C(=O)OC(C)(C)C)nc3)nn2-c2ccccc2)[C@H](c2ccnc(F)c2)O1` (racemic) [Compound I-393], for which, under setting [1], the IC50 was less than 100 nM.
As to `COCCN1C[C@@H](NC(=O)Nc2c(C)c(-c3ccc(N4C[C@H]5COC[C@@H](C4)N5)nc3)nn2-c2ccccc2)[C@H](c2ccnc(F)c2)O1` (racemic) [Compound I-394], the 50% inhibitory concentration (IC50) under setting [1] is less than 100 nM.
Regarding `COCCN1C[C@@H](NC(=O)Nc2c(C)c(-c3ccc(N4C[C@H]5COC[C@@H](C4)N5C)nc3)nn2-c2ccccc2)[C@H](c2ccnc(F)c2)O1` (racemic) [Compound I-396], the IC50 under setting [1] was less than 100 nM.
As for `COCCN1C[C@@H](NC(=O)Nc2c(C)c(C3=CC(=O)N(C)C(C)(C)C3)nn2-c2ccccc2)[C@H](c2ccnc(F)c2)O1` (racemic) [Compound I-397], the IC50 under setting [1] was less than 100 nM.
`COCCN1C[C@@H](NC(=O)Nc2c(C)c(-c3cnc4c(c3)nc(N3CCCC3)n4C)nn2-c2ccccc2)[C@H](c2ccnc(F)c2)O1` (racemic) [Compound I-398]: the IC50 under setting [1] was less than 100 nM.
For the compound `COCCN1C[C@@H](NC(=O)Nc2c(C)c(-c3cnc4c(c3)nc(N3CCN(C)CC3)n4C)nn2-c2ccccc2)[C@H](c2ccnc(F)c2)O1` (racemic) [Compound I-399], the IC50 under setting [1] was less than 100 nM.
With `COCCN1C[C@@H](NC(=O)Nc2c(C)c(-c3cnc4c(c3)ncn4CC(=O)N3CCN(C)CC3)nn2-c2ccccc2)[C@H](c2ccnc(F)c2)O1` (racemic) [Compound I-400], under setting [1], the IC50 was less than 100 nM.
With `CNC(=O)Cn1cnc2cc(-c3nn(-c4ccccc4)c(NC(=O)N[C@@H]4CN(CCOC)O[C@H]4c4ccnc(F)c4)c3C)cnc21` (racemic) [Compound I-401], under setting [1], the IC50 was less than 100 nM.
Consider `COCCN1C[C@@H](NC(=O)Nc2c(C)c(-c3cnc4c(c3)ncn4CC(=O)N(C)C)nn2-c2ccccc2)[C@H](c2ccnc(F)c2)O1` (racemic) [Compound I-402], for which the IC50 under setting [1] was less than 100 nM.

Values taken from US10640495B2, “Heterocycle derivatives having TrkA inhibitory activity” (Shionogi & Co., Ltd., priority 2015, dated 2020).
